Reference: patent EP0396827A1, “2-Phenylthiobenzylamine dervivatives and acid addition salts thereof” (SPOFA Spojené Podniky Pro Zdravotnickou Vyrobu, priority 1989, dated 1990)
Structures can show the parent of a compound that is named as a salt.

Legend:
IP receptors = biological target: T1, IP receptors (Rattus norvegicus, UniProt P31652); assay: inhibition of tritium-labelled imipramine binding in rat hypothalamus
T1 construct: standard biochemical tests on rat hypothalamus; from tissue; host or cells: rat hypothalamus
T1 sequence (P31652 whole entry): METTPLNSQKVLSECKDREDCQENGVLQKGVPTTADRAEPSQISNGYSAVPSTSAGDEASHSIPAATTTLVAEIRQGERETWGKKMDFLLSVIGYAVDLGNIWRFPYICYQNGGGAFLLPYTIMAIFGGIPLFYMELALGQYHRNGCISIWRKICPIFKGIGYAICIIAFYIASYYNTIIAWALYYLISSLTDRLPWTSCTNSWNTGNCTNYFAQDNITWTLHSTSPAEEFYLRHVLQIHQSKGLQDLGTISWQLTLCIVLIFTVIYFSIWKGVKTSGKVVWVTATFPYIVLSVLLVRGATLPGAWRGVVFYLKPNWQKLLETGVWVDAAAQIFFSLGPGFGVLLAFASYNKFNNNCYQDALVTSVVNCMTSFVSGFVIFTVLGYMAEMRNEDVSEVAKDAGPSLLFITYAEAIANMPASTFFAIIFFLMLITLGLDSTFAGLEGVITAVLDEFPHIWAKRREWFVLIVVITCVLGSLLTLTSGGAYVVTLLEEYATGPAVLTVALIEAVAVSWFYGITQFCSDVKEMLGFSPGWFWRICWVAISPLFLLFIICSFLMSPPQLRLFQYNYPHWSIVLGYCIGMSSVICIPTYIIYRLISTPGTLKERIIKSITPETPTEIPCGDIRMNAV
Description: (§1) The above compound was selected as a preferred structure from numerous related new substances on the basis of pharmacological evaluation.
(§2) The substances under study were tested in the form of salts administered p.o. The results are conventionally expressed as medium inhibition concentrations IC₅₀ (nM) and effective doses ED (eliciting a first statistically significant response) or medium effective doses ED₅₀ (mg per kg); the concentrations and effective doses are calculated as the corresponding amounts of the base.
(§3) Acute toxicity was tested in mice p.o. and medium lethal dose LD₅₀ is given. Thus, compound IA hydrogen maleate LD₅₀ 232 mg/kg. […] Reserpine hypothermia ED 10, ptosis 25, ulceration 50 mg/kg. Yohimbine, ED₅₀ 54.7 mg/kg.

[1] = antireserpine activity: reserpine eyelid ptosis; assay type: in vivo; settings: p.o.; ED eliciting a first statistically significant response; calculated as base
Description: (§4) Also, standard pharmacological tests of antireserpine activity (on experimental hypothermia, eyelid ptosis and gastric ulceration) and potentiation of yohimbine toxicity in mice are indicative of pronounced antidepressant properties of compound IA.
as §2, §3

[2] = potentiation of yohimbine toxicity in mice; assay type: in vivo; settings: Mus musculus, po, calculated as base, read-out: Yohimbine, ED₅₀
Description: as §4, §2, §3

[3] = antireserpine activity: reserpine gastric ulceration; assay type: in vivo; settings: p.o.; ED eliciting a first statistically significant response; calculated as base
Description: as §4, §2, §3

DP receptors = biological target: T2, DP receptors (Rattus norvegicus, UniProt Q63380); assay: inhibition of tritium-labelled desipramine binding in rat hypothalamus
T2 construct: standard biochemical tests on rat hypothalamus; from tissue; host or cells: rat hypothalamus
T2 sequence (Q63380 1-617): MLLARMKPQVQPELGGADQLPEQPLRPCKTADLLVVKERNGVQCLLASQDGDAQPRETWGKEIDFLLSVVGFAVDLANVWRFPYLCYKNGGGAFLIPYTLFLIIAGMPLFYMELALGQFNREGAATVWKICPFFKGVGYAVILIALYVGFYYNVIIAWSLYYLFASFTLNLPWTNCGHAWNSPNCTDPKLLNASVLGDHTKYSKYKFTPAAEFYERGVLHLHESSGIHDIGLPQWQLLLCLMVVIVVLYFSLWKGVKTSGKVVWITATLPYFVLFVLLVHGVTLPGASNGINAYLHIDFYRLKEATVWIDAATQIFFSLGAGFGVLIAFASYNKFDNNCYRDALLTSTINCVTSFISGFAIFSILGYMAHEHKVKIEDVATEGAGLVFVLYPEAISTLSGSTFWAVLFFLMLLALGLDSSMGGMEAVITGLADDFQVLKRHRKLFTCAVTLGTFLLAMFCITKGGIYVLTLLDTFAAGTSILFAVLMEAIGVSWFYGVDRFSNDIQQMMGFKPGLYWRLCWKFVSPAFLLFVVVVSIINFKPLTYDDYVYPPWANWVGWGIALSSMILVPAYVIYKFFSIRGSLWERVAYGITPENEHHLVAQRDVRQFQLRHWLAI
Description: as §1, §2, §3

[4] = antireserpine activity: reserpine hypothermia; assay type: in vivo; settings: p.o.; ED eliciting a first statistically significant response; calculated as base
Description: as §4, §2, §3

[5] = acute toxicity in mice p.o.; settings: mouse, in vivo, po, read-out: LD₅₀
Description: as §3

5-HT re-uptake = assay: ³H-5-HT re-uptake inhibition in rat brain cortex; assay type: biochemical; settings: ³H-5-HT 10 nM, calculated as base, read-out: 5-HT re-uptake IC₅₀
Description: (§5) The reported selective action of compound IA was verified by direct comparison of ³H-5-HT (10 nM) and ³H-noradrenaline (NA, 10 nM) re-uptake in rat brain cortex; again the two sets of values were markedly differentiated in the sense of predominant 5-HT re-uptake inhibition.
as §2, §3

NA re-uptake = assay: ³H-noradrenaline re-uptake inhibition in rat brain cortex; assay type: biochemical; settings: ³H-noradrenaline 10 nM, calculated as base, read-out: NA re-uptake IC₅₀
Description: as §5, §2, §3

CN(C)Cc1ccccc1Sc1cccc(O)c1 [compound IA hydrogen maleate, N,N-Dimethyl-2-(3-hydroxyphenylthio)benzylamine]
IC50 (IP receptors): 0.00424 µM | Reserpine ptosis ED [1]: 25 mg/kg | ED50 [2]: 54.7 mg/kg | Reserpine ulceration ED [3]: 50 mg/kg | IC50 (DP receptors): 12.9 µM | Reserpine hypothermia ED [4]: 10 mg/kg | LD50 [5]: 232 mg/kg | IC50 (5-HT re-uptake): 0.00058 µM | IC50 (NA re-uptake): 506 µM
